Source: publication PMC11091243, “PD-L1 targeted peptide demonstrates potent antitumor and immunomodulatory activity in cancer immunotherapy” (Frontiers in Immunology, 2024)

How the values were obtained:
CT26 cells [1] = assay: CCK8 proliferation assay on CT26 cells; format: cell-based, mouse; conditions: 0.1-1 mg/ml, 8 or 24 h, CCK8, n = 3
Experimental: To observe the impact of PPL-C on tumor cells and lymphocyte proliferation, the Counting Kit 8 (CCK8) reagent was employed. 20,000 cells/well were cultured in 96-well plates. Cells were treated for 8 or 24 hours with PPL-C (0.1, 0.25, 0.5, and 1 mg/ml) or not. Following the manufacturer guidelines, 10 µl of the CCK8 reagent (from Biotech Bioengineering, Cat: E606335) was applied to each well two hours before the incubation period ended. Using an ELISA plate reader from Molecular Devices (United States) the sample absorbance was calculated at 450 nm. To ensure repeatability, each experiment was replicated. By assessing absorbance at 450 nm, the CCK8 assay measures cell viability and proliferation.

PD-1/PD-L1 binding = biological target: T1, PD-1/PD-L1 binding (Homo sapiens, UniProt Q9NZQ7); assay: ELISA competition of peptides with PD-1 for binding to PD-L1; conditions: n = 3, effect increases with peptide concentration
T1 construct: PD-1: 10377-H08H
Experimental: After seven phages were grown and purified, the solution was diluted 10 times to produce eight gradients. To ascertain the phage’s affinity for PD-L1, an ELISA test was run. Briefly, 96-well plates were filled with 150 µL of PD-L1 ([…]) in assay diluent (BioLegend, San Diego, CA), and incubated at 4°C overnight. 5% BSA in water was used to block the wells for two hours at 4°C. Following washing, 100 µL of phage diluent was added to each well, and they were shaken for two hours at room temperature. The wells were then treated with HRP-conjugated anti-M13 antibody at dose of 1:5000. With 100 µL of HRP substrate, the reaction was observed, and the OD410 was determined. By deducting the OD value of each phage binding to BSA-coated wells from the OD value of that phage binding to PD-L1, the specific binding of each phage to PD-L1 was computed. Three duplicate runs of this assay were made. GraphPad Prism 6 software was used to compute each phage binding affinity by nonlinear regression and convert it to a Scatchard plot. ELISA was used to evaluate the candidate peptides capacity to inhibit PD1/PD-L1 binding. The subsequent stages were the same as those previously outlined. Following incubation, OD410 was determined by goat anti-rabbit monoclonal antibody that had been HRP-labeled and rabbit anti-human PD-L1 protein monoclonal antibody.
To assess the effect of PPL-C peptide interference, PD-L1 binding to PD-1 was investigated using ELISA and cell-based analysis. For the ELISA, 100 μL of mouse PD-L1 in PBS was coated in each well of a 96-well plate and incubated the plate at 4°C overnight. On the second day, 1% BSA in PBST was used to block the plate. Each well was then filled with 200 nmol/L biotinylated PD-1 and FITC-labeled PPL-C peptides (at final concentrations of 40, 20, 10, 5, or 2.5 μmol/L) before 1.5 hours incubating at room temperature. After two PBST washes, the relative FITC fluorescence intensity was measured using a Cytation 3 instrument. […] After two PBST washes, the Cytation 3 device was used to detect PE fluorescence intensity. […] Samples were analyzed by flow cytometry.

[2] = test system: PD-L1-mediated suppression of CD4+ T cells; assay: T-cell activation assay (CD4+ T cells on anti-CD3/PD-L1 coated plates); format: cell-based, mouse
Experimental: Following the manufacturer’s instructions, mouse peripheral blood mononuclear cells (PBMCs) were isolated from a healthy mouse using separation fluid. Then, CD4 (L3T4) MicroBeads were used to separate CD4+ T cells from PBMCs, and a CD4-PE/Cy5 antibody was employed to determine effectiveness. Cells were adjusted to a concentration of 5×10^5 cells/mL in IMDM supplemented with 10% FBS and 20 ng/mL IL-2 to produce CD4+ T-cell blasts. A 1:1 ratio of mouse T-activator CD3/CD28 beads was introduced to the cells. Every other day, new media was added, and on day 7, cells were collected and stored for later use. 100 μL of anti-mouse CD3 (1 μg/mL) were applied to each well and incubated at 4°C overnight. Next, the wells were rinsed twice with […] of PBS. The wells were then filled with 100 μL of PD-L1 […] and the plates were incubated at 37°C for 3 hours before receiving two PBS washes. Then, varying quantities of PD-L1 monoclonal antibodies and peptides (PPL-C or control peptide) were added to the appropriate wells, and the plates were incubated at 37°C for an hour. The wells were then washed twice with PBS. Finally, CD4^+ T cells (5×10^4 cells/well) were added, then centrifugated the plate at 1,000 RMP for 2 min. The cells were then cultured for three days at 37°C in a humidified incubator with 5% CO2. A mouse IFN-γ ELISA Kit was used to assess the quantity of IFN-γ in culture supernatant. […]

CT26 cells [3] = assay: Cytotoxicity of spleen lymphocytes of treated mice against CT26 cells (CCK8); format: cell-based, mouse; conditions: CT26:lymphocyte 1:2, 48 h, CCK8, n = 6, versus untreated and control peptide groups
Experimental: After 14 consecutive days of administration, total lymphocytes were isolated from mouse spleens using Ficoll density gradient fractionation, which was provided by Shanghai Biotech Bioengineering. Before co-incubation with lymphocytes, CT26 cells were treated with 100 μg/mL mitomycin C (MMC) for 2 hours for […] experiments. For cytotoxicity experiments, about 1×10^6 tumor cells were seeded in each well with a CT26: lymphocyte ratio of 1: 2 in 200 μL RIPM medium plus 10% FBS for 48 h. A corresponding negative control group was also designed. During the final two hours of the incubation, 10 µL of CCK8 reagent was added to each well following the manufacturer’s instructions (Biotech Bioengineering Cat: E606335). Using an ELISA plate reader (Molecular Devices, USA) the absorbance was determined at 450 nm. There were three duplicates of each experiment.

T1 sequence (Q9NZQ7 19-239 limits assumed): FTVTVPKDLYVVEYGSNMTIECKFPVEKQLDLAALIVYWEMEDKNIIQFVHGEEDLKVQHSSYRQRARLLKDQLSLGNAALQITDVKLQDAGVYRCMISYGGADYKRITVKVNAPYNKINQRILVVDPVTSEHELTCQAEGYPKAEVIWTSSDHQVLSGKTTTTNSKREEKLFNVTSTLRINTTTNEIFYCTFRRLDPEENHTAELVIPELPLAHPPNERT

## CC(C)[C@H](NC(=O)[C@H](CO)NC(=O)[C@@H](NC(=O)[C@@H](N)CO)C(C)C)C(=O)N[C@@H](CO)C(=O)N[C@@H](Cc1c[nH]cn1)C(=O)N[C@@H](Cc1ccccc1)C(=O)N[C@@H](CCC(N)=O)C(=O)N[C@@H](CCCCN)C(=O)N[C@H](C(=O)N[C@@H](Cc1c[nH]c2ccccc12)C(=O)N[C@H](C(=O)N[C@H](C(=O)NCC(=O)NCC(=O)NCC(=O)N[C@@H](CO)C(=O)N[C@@H](CCCCN)C(N)=O)C(C)C)C(C)C)C(C)C [PPL-C]
CT26 cells [1]
  Growth of CT26 cells after peptide administration (direct cytotoxicity): grew normally
PD-1/PD-L1 binding
  Competition with PD-1 to bind PD-L1 (blocking of PD-L1/PD-1): significant blocking effect
[2]; 20 μmol/L, CCK-8, n = 3
  T-cell proliferation: increased significantly
[2]; versus control peptide, 3 days, ELISA, n = 3
  IFN-γ release of CD4+ T lymphocytes: significant increase
CT26 cells [3]
  Effect of lymphocytes from treated mice on tumor cell proliferation: significantly inhibited tumor cell proliferation
